Data from PubChem BioAssay AID180 (DTP/NCI, 2004).
Where “and” joins values, the source holds several entries; their conditions need not be identical. Equal entries are not always repeated.

System: BDF1 mice, Adenocarcinoma 755 s.c., tumor weight T/C
Assay: NCI In Vivo Anticancer Drug Screen. Data for tumor model Adenocarcinoma 755 (subcutaneous) in B6D2F1 (BDF1) mice
Conditions: endpoint: mean tumor weight, higher = larger tumour
Description: The antitumor activity of compounds was measured in mice bearing transplantable tumors. Survival or tumor size were measured and the results are expressed as the measurement made in the treated group (T) divided by the measurement made in the vehicle treated control group (C). The tumor model used in this assay is Adenocarcinoma 755 (subcutaneous) in B6D2F1 (BDF1) mice

[1] = dose: 15.0 mg/kg/injection, schedule: Q01DX011 (ip), vehicle: carboxymethylcellulose (CMC)
[2] = dose: 30.0 mg/kg/injection, schedule: Q01DX011 (ip), vehicle: carboxymethylcellulose (CMC)
[3] = dose: 60.0 mg/kg/injection, schedule: Q01DX011 (ip), vehicle: carboxymethylcellulose (CMC)
[4] = dose: 12.5 mg/kg/injection, schedule: Q01DX011 (ip), vehicle: methylcellulose (MC)
[5] = dose: 25.0 mg/kg/injection, schedule: Q01DX011 (ip), vehicle: methylcellulose (MC)
[6] = dose: 50.0 mg/kg/injection, schedule: Q01DX011 (ip), vehicle: methylcellulose (MC)
[7] = dose: 100.0 mg/kg/injection, schedule: Q01DX011 (ip), vehicle: methylcellulose (MC)
[8] = dose: 20.0 mg/kg/injection, schedule: Q01DX011 (ip), vehicle: carboxymethylcellulose (CMC)
[9] = dose: 40.0 mg/kg/injection, schedule: Q01DX011 (ip), vehicle: carboxymethylcellulose (CMC)
[10] = dose: 120.0 mg/kg/injection, schedule: Q01DX011 (ip), vehicle: carboxymethylcellulose (CMC)
[11] = dose: 240.0 mg/kg/injection, schedule: Q01DX011 (ip), vehicle: carboxymethylcellulose (CMC)
[12] = dose: 100.0 mg/kg/injection, schedule: Q01DX011 (ip), vehicle: carboxymethylcellulose (CMC)

CC1CCC(n2cnc3c(Cl)ncnc32)O1 (stereo unspecified)
T/C (dose: 3.7 mg/kg/injection, schedule: Q01DX011 (ip), vehicle: carboxymethylcellulose (CMC)): 58 % of control | T/C (dose: 7.5 mg/kg/injection, schedule: Q01DX011 (ip), vehicle: carboxymethylcellulose (CMC)): 35 % of control | T/C [1]: 63 % of control | T/C [2]: 15 % of control and 23 % of control | T/C [3]: 5 % of control

O=c1[nH]cnc2c1ncn2C1CCCCC1
T/C (dose: 23.0 mg/kg/injection, schedule: Q01DX011 (ip), vehicle: carboxymethylcellulose (CMC)): 93 % of control and 111 % of control | T/C (dose: 23.1 mg/kg/injection, schedule: Q01DX011 (ip), vehicle: carboxymethylcellulose (CMC)): 86 % of control | T/C (dose: 23.12 mg/kg/injection, schedule: Q01DX011 (ip), vehicle: carboxymethylcellulose (CMC)): 74 % of control | T/C (dose: 46.0 mg/kg/injection, schedule: Q01DX011 (ip), vehicle: carboxymethylcellulose (CMC)): 74 % of control and 85 % of control | T/C (dose: 46.2 mg/kg/injection, schedule: Q01DX011 (ip), vehicle: carboxymethylcellulose (CMC)): 118 % of control | T/C (dose: 46.25 mg/kg/injection, schedule: Q01DX011 (ip), vehicle: carboxymethylcellulose (CMC)): 117 % of control | T/C (dose: 46.25 mg/kg/injection, schedule: Q01DX011 (oral), vehicle: carboxymethylcellulose (CMC)): 104 % of control | T/C (dose: 92.5 mg/kg/injection, schedule: Q01DX011 (ip), vehicle: carboxymethylcellulose (CMC)): 90 % of control and 99 % of control and 108 % of control | T/C (dose: 92.5 mg/kg/injection, schedule: Q01DX011 (oral), vehicle: carboxymethylcellulose (CMC)): 118 % of control | T/C (dose: 185.0 mg/kg/injection, schedule: Q01DX011 (oral), vehicle: carboxymethylcellulose (CMC)): 114 % of control | T/C (dose: 370.0 mg/kg/injection, schedule: Q01DX011 (oral), vehicle: carboxymethylcellulose (CMC)): 79 % of control

OCCn1cnc2c(SCc3ccccc3)ncnc21
T/C [4]: 108 % of control | T/C [5]: 17 % of control | T/C [6]: 3 % of control | T/C (dose: 75.0 mg/kg/injection, schedule: Q01DX011 (ip), vehicle: methylcellulose (MC)): 3 % of control | T/C [7]: 1 % of control

CC1CC2(C)C(=CC1=O)CCC1C3CCC(C)(O)C3(C)CC(O)C12F (stereo unspecified)
T/C (dose: 200.0 mg/kg/injection, schedule: Q01DX011 (sc), vehicle: steriod suspending solution): 106 % of control | T/C (dose: 400.0 mg/kg/injection, schedule: Q01DX011 (sc), vehicle: steriod suspending solution): 92 % of control

O=C(NC(CO)C(=O)O)C(Cl)Cl (stereo unspecified)
T/C (dose: 1000.0 mg/kg/injection, schedule: Q01DX011 (ip), vehicle: methylcellulose (MC)): 93 % of control

O=S(=O)(O)C(Nc1ccccc1)c1ccccc1 (stereo unspecified)
T/C [8]: 119 % of control | T/C [9]: 91 % of control | T/C (dose: 80.0 mg/kg/injection, schedule: Q01DX011 (ip), vehicle: carboxymethylcellulose (CMC)): 70 % of control

CC(=O)OCC1OC(n2cnc3c(=O)[nH]c(N)nc32)CC1OC(C)=O (stereo unspecified)
T/C [2]: 115 % of control | T/C [3]: 95 % of control | T/C [10]: 94 % of control | T/C [11]: 115 % of control

CCCNc1ncnc2c1cnn2C1CCCO1 (stereo unspecified)
T/C (dose: 1.5 mg/kg/injection, schedule: Q01DX011 (ip), vehicle: methylcellulose (MC)): 75 % of control | T/C (dose: 3.1 mg/kg/injection, schedule: Q01DX011 (ip), vehicle: methylcellulose (MC)): 66 % of control | T/C (dose: 6.2 mg/kg/injection, schedule: Q01DX011 (ip), vehicle: methylcellulose (MC)): 27 % of control | T/C [4]: 3 % of control and 4 % of control

Cn1cc(F)c(=O)[nH]c1=O
T/C (dose: 5.0 mg/kg/injection, schedule: Q01DX011 (ip), vehicle: carboxymethylcellulose (CMC)): 86 % of control | T/C (dose: 10.0 mg/kg/injection, schedule: Q01DX011 (ip), vehicle: carboxymethylcellulose (CMC)): 117 % of control | T/C [8]: 87 % of control | T/C [9]: 99 % of control

O=[N+]([O-])O.[Ga]
T/C (dose: 12.5 mg/kg/injection, schedule: Q01DX011 (ip), vehicle: saline): 20 % of control | T/C (dose: 25.0 mg/kg/injection, schedule: Q01DX011 (ip), vehicle: saline): 24 % of control | T/C (dose: 50.0 mg/kg/injection, schedule: Q01DX011 (ip), vehicle: saline): 7 % of control

CN(Cc1ccccc1)c1ncnc2[nH]ncc12
T/C [4]: 42 % of control | T/C [5]: 62 % of control | T/C [6]: 10 % of control | T/C [7]: 2 % of control

CCCCS(=O)(=O)OCCCCOS(=O)(=O)CCCC
T/C (dose: 45.0 mg/kg/injection, schedule: Q01DX011 (ip), vehicle: carboxymethylcellulose (CMC)): 108 % of control | T/C (dose: 90.0 mg/kg/injection, schedule: Q01DX011 (ip), vehicle: carboxymethylcellulose (CMC)): 51 % of control | T/C (dose: 180.0 mg/kg/injection, schedule: Q01DX011 (ip), vehicle: carboxymethylcellulose (CMC)): 41 % of control | T/C (dose: 360.0 mg/kg/injection, schedule: Q01DX011 (ip), vehicle: carboxymethylcellulose (CMC)): 16 % of control

CCCCn1cnc2c([N+](C)(C)C)ncnc21
T/C (dose: 3.75 mg/kg/injection, schedule: Q01DX011 (ip), vehicle: carboxymethylcellulose (CMC)): 66 % of control | T/C [1]: 33 % of control and 38 % of control

O=c1cc2[nH]c(O)cn2c(=O)[nH]1
T/C [2]: 95 % of control and 73 % of control | T/C [10]: 47 % of control | T/C [11]: 64 % of control

CCCNc1cc(=O)[nH]c(N)n1
T/C (dose: 55.0 mg/kg/injection, schedule: Q01DX011 (ip), vehicle: methylcellulose (MC)): 110 % of control | T/C (dose: 165.0 mg/kg/injection, schedule: Q01DX011 (ip), vehicle: methylcellulose (MC)): 41 % of control

CC[N+]([O-])(CC)c1n(C)c2c(=O)n(C)c(=O)n(C)c2[n+]1[O-]
T/C (dose: 30.0 mg/kg/injection, schedule: Q01DX011 (ip), vehicle: methylcellulose (MC)): 93 % of control | T/C (dose: 60.0 mg/kg/injection, schedule: Q01DX011 (ip), vehicle: methylcellulose (MC)): 96 % of control | T/C (dose: 120.0 mg/kg/injection, schedule: Q01DX011 (ip), vehicle: methylcellulose (MC)): 110 % of control | T/C (dose: 240.0 mg/kg/injection, schedule: Q01DX011 (ip), vehicle: methylcellulose (MC)): 70 % of control

c1ccc(CSc2ncnc3nc[nH]c23)nc1
T/C (dose: 0.75 mg/kg/injection, schedule: Q01DX011 (ip), vehicle: carboxymethylcellulose (CMC)): 102 % of control | T/C (dose: 1.5 mg/kg/injection, schedule: Q01DX011 (ip), vehicle: carboxymethylcellulose (CMC)): 40 % of control | T/C (dose: 3.0 mg/kg/injection, schedule: Q01DX011 (ip), vehicle: carboxymethylcellulose (CMC)): 26 % of control | T/C (dose: 6.0 mg/kg/injection, schedule: Q01DX011 (ip), vehicle: carboxymethylcellulose (CMC)): 9 % of control | T/C (dose: 12.0 mg/kg/injection, schedule: Q01DX011 (ip), vehicle: carboxymethylcellulose (CMC)): 7 % of control | T/C (dose: 50.0 mg/kg/injection, schedule: Q01DX011 (ip), vehicle: carboxymethylcellulose (CMC)): 5 % of control | T/C [12]: 4 % of control

Oc1ccc2ccccc2c1N=Nc1ccc(N=Nc2ccccc2)cc1
T/C (dose: 25.0 mg/kg/injection, schedule: Q01DX011 (ip), vehicle: carboxymethylcellulose (CMC)): 121 % of control | T/C [12]: 116 % of control | T/C (dose: 200.0 mg/kg/injection, schedule: Q01DX011 (ip), vehicle: carboxymethylcellulose (CMC)): 108 % of control

CCCNS(=O)(=O)c1ncnc2nc[nH]c12
T/C (dose: 9.0 mg/kg/injection, schedule: Q01DX011 (ip), vehicle: carboxymethylcellulose (CMC)): 52 % of control | T/C (dose: 18.0 mg/kg/injection, schedule: Q01DX011 (ip), vehicle: carboxymethylcellulose (CMC)): 17 % of control | T/C (dose: 37.0 mg/kg/injection, schedule: Q01DX011 (ip), vehicle: carboxymethylcellulose (CMC)): 3 % of control

Cc1ccccc1N=Nc1ccc(N=Nc2ccc(O)cc2)c(C)c1
T/C (dose: 1.87 mg/kg/injection, schedule: Q01DX011 (ip), vehicle: methylcellulose (MC)): 74 % of control | T/C (dose: 1.87 mg/kg/injection, schedule: Q01DX011 (ip), vehicle: saline): 77 % of control | T/C (dose: 3.25 mg/kg/injection, schedule: Q01DX011 (ip), vehicle: methylcellulose (MC)): 89 % of control | T/C (dose: 3.25 mg/kg/injection, schedule: Q01DX011 (ip), vehicle: saline): 101 % of control | T/C (dose: 7.5 mg/kg/injection, schedule: Q01DX011 (ip), vehicle: methylcellulose (MC)): 101 % of control | T/C (dose: 7.5 mg/kg/injection, schedule: Q01DX011 (ip), vehicle: saline): 68 % of control | T/C (dose: 15.0 mg/kg/injection, schedule: Q01DX011 (ip), vehicle: saline): 88 % of control
